This note sets out measurements from paper PMC2074783, “Metabolism and pharmacokinetics of the anti-tumour agent 2,3,5-trimethyl-6-(3-pyridylmethyl)1,4-benzoquinone (CV-6504)” (British Journal of Cancer, 1996).

In one data set the test system is MAC13 cells. As to the kind of experiment: Growth of MAC13 cells in vitro after 72 h. To be noted: for Inhibition of the growth of MAC13 cells in vitro: concentrations up to 100 µM, 72 h. Type of data set: cell-based, murine. The source says:
(§1) Bridsh Journal of Cancer (1996) 74, 1349-1353 ? 1996 Stockton Press All rights reserved 0007-0920/96 $12.00 Metabolism and pharmacokinetics of the anti-tumour agent 2,3,5- trimethyl-6-(3-pyridylmethyl) 1,4-benzoquinone (CV-6504) H J Hussey and M J Tisdale Pharmaceutical Sciences Institute, Aston University, Birmingham B4 7ET, UK. Summary 2,3,5-Trimethyl-6-(3-pyridylmethyl)1,4-benzoquinone (CV-6504) is an effective inhibitor of the growth of established murine adenocarcinomas (MACs) and is shortly to enter clinical investigation. When administered to mice bearing the MAC16 tumour, CV-6504 rapidly disappeared from the plasma and tissues and there was an accumulation of the sulphate and glucuronide metabolites. […] The concentration of glucuronide and sulphate metabolites in both tumour and liver decreased with time. […] Although the sulphate and glucuronide conjugates of CV-6504 were ineffective inhibitors of the growth of MAC13 cells in vitro at concentrations up to 100 µM, in vivo at a concentration of 50 mg kg-' day-' the conjugates produced a similar anti-tumour effect to CV-6504 at a concentration of 5 mg kg-} day-l. […] Using MAC13 cells ex vivo, CV-6504 inhibited conversion of arachidonic acid to 5-, 12- and 15- hydroxyeicosatetraenoic acids (HETE). The percentage reduction in formation of 12- and 15-HETE exceeded that of 5-HETE. Inhibition of HETE formation may be responsible for the anti-tumour activity of CV-6504. […] Our own studies have identified the 5-lipoxygenase inhibitor (Ohkawa et al., 1991a), 2,3,5-trimethyl-6-(3-pyridyl- methyl)1,4-benzoquinone (CV-6504), as an effective inhibitor of the growth of established murine adenocarcinomas (MAC) in vivo with a therapeutic index of at least 10 (Hussey et al., 1996). […] CV-6504 undergoes rapid reduction by two-electron donating enzymes, such as DT-diaphorase, and the resulting hydroquinone inhibits both 5-lipoxygenase activity and lipid peroxidation on the basis of its antioxidant ability (Ohkawa et al., 199 lb) by reducing the ferric iron in the active site of the enzyme to the ferrous (resting state). Studies on the metabolism of CV-6504 by mice, rats, dogs and monkeys indicate reduction of the quinone ring and subsequent conjugation to yield the 1- and 4-glucuronides and the corresponding sulphates (Takeda Chemical Co., personal communication). […] In the present study the tumour and tissue levels of CV- Correspondence: HJ Hussey Received 4 March 1996; revised 21 May 1996; accepted 29 May 1996 6504 and its glucuronide and sulphate metabolites have been determined after single and consecutive dosing of mice bearing the MAC16 adenocarcinoma. A comparison has also been made between CV-6504 and its glucuronide and sulphate metabolites on tumour growth and metabolism of AA along the lipoxygenase pathways with a view to establishing the mechanism of the anti-tumour effect. Material and methods Pure strain NMRI mice were obtained from our own breeding colony and were fed a rat and mouse breeding diet (Pilsbury's, Birmingham) and water ad libitum. Male animals weighing 20-25 g were transplanted subcutaneously with 1-2 mm3 fragments of the MAC16 or MAC13 tumours by trocar into the right flank. The experiments were initiated when the tumour volume, calculated from the formula: length x (width)2 2 was between 72 and 128 mm3. Tumour dimensions were measured by calipers. […]

For another data set, the system named is MAC13 tumour. Put plainly: Growth of the MAC13 tumour in vivo. To be noted: 50 mg kg-1 daily p.o.; for Anti-tumour activity in comparison with the 1-glucuronide and 4-sulphate: MAC13 tumour, difference not significant. Further details: species or system NMRI mice.
Description: as §1, with “calipers. Mice bearing the MAC13 tumour were subject to restricted randomisation into groups of nine to receive either CV-6504 (5 mg kg-') or the 1- or 4- glucuronide, or the 1- or 4-sulphate (50 mg kg-'). CV-6504 and the sulphate and glucuronide metabolites were supplied by Takeda Chemical Industries Ltd., Osaka, Japan and were administered p.o. daily in aqueous solution (0.1 ml). Control animals received water alone (0.1 ml).” for “calipers.”

Data set [1] is described as follows: Metabolism and tissue levels of [14C]CV-6504 in mice bearing the MAC16 tumour. The following applies: male, NMRI, mouse, in vivo, 24 h. The source says:
Bridsh Journal of Cancer (1996) 74, 1349-1353 ? 1996 Stockton Press All rights reserved 0007-0920/96 $12.00 Metabolism and pharmacokinetics of the anti-tumour agent 2,3,5- trimethyl-6-(3-pyridylmethyl) 1,4-benzoquinone (CV-6504) H J Hussey and M J Tisdale Pharmaceutical Sciences Institute, Aston University, Birmingham B4 7ET, UK. Summary 2,3,5-Trimethyl-6-(3-pyridylmethyl)1,4-benzoquinone (CV-6504) is an effective inhibitor of the growth of established murine adenocarcinomas (MACs) and is shortly to enter clinical investigation. When administered to mice bearing the MAC16 tumour, CV-6504 rapidly disappeared from the plasma and tissues and there was an accumulation of the sulphate and glucuronide metabolites. […] The concentration of glucuronide and sulphate metabolites in both tumour and liver decreased with time. […] In the present study the tumour and tissue levels of CV- Correspondence: HJ Hussey Received 4 March 1996; revised 21 May 1996; accepted 29 May 1996 6504 and its glucuronide and sulphate metabolites have been determined after single and consecutive dosing of mice bearing the MAC16 adenocarcinoma. […] The experiments were initiated when the tumour volume, calculated from the formula: length x (width)2 2 was between 72 and 128 mm3. Tumour dimensions were measured by calipers. […]

Data set [2] relates to conversion of arachidonic acid to HETEs in MAC13 cells. As to the kind of experiment: Lipoxygenase metabolites of arachidonate in MAC13 tumour cells ex vivo. Type of data set: cell-based, murine.
Description: as §1, with “calipers. Mice bearing the MAC13 tumour were subject to restricted randomisation into groups of nine to receive either CV-6504 (5 mg kg-') or the 1- or 4- glucuronide, or the 1- or 4-sulphate (50 mg kg-'). CV-6504 and the sulphate and glucuronide metabolites were supplied by Takeda Chemical Industries Ltd., Osaka, Japan and were administered p.o. daily in aqueous solution (0.1 ml). Control animals received water alone (0.1 ml).” for “calipers.”

Another data set concerns MAC16 cells. As to the kind of experiment: Inhibition of the growth of MAC16 cells in vitro. Format: cell-based, murine. To be noted: Mus musculus, tissue culture.

For `Cc1c(C)c(OC2OC(C(=O)O)C(O)C(O)C2O)c(Cc2cccnc2)c(C)c1O` (stereo not shown) [CV-6504-1-glucuronide], the “Inhibition of the growth of MAC13 cells in vitro” value (shortened to “Inhibition”) with MAC13 cells is recorded as “ineffective”. Besides, the “Anti-tumour activity against MAC13 tumour in vivo compared with free CV-6504 at 5 mg kg-1 day-1 orally” value in the data set with MAC13 tumour was “similar”.

Regarding `CC1=C(C)C(=O)C(Cc2cccnc2)=C(C)C1=O` [CV-6504, 2,3,5-Trimethyl-6-(3-pyridylmethyl)1,4-benzoquinone], in data set [1], the “concentration of free CV-6504 in the liver” value is 240 nM and the “concentration of free CV-6504 in the tumour” value turned out to be 3300 nM. The “percentage reduction in formation of 12- and 15-HETE relative to that of 5-HETE” value in data set [2] (10 µM, 30 min) was “exceeded”. Besides, in data set [2] (10 µM, 30 min, [3H]AA), the 5-HETE production entry is listed as “significantly decreased”, the 11-HETE production entry is “significantly decreased”, the 12-HETE production result is “significantly decreased” and the 15-HETE production result is given as “significantly decreased”. The “total unmetabolised AA” value in data set [2] (10 µM, 30 min, [3H]AA) is listed as “significantly decreased”. Moreover, the IC50 in the data set on MAC13 cells (Mus musculus, MAC13, 72 h, read-out: IC50 for inhibition of growth of MAC13 cells in vitro) amounted to 3000 nM. In addition, half-maximal inhibition with MAC16 cells (IC50) required 3000 nM.

Regarding `Cc1c(C)c(OS(=O)(=O)O)c(C)c(Cc2cccnc2)c1O` [4-sulphate], the “Inhibition” value in the data set with MAC13 cells is recorded as “ineffective”. Also, the “Anti-tumour activity against MAC13 tumour in vivo compared with free CV-6504 at 5 mg kg-1 day-1 orally” value in the data set with MAC13 tumour is “similar”.

As to `Cc1c(C)c(OS(=O)(=O)O)c(Cc2cccnc2)c(C)c1O` [CV-6504-1-sulphate], in data set [2] (100 µM, 30 min), the 12-HETE production entry is “significantly reduced” and the 15-HETE production result is given as “significantly reduced”. For the same molecule, the 11-HETE production entry in data set [2] (100 µM, 1 h) was “significantly reduced”. Also, the 5-HETE production result in data set [2] (100 µM, 2 h) is “significantly reduced”. Also, in the data set with MAC13 cells, the “Inhibition” value is recorded as “ineffective”. Further, in the data set on MAC13 tumour, the “Anti-tumour activity against MAC13 tumour in vivo compared with free CV-6504 at 5 mg kg-1 day-1 orally” value was “similar”; the “Anti-tumour activity in comparison with the 1-glucuronide and 4-sulphate” value was “slightly reduced”.

For `Cc1c(C)c(OC2OC(C(=O)O)C(O)C(O)C2O)c(C)c(Cc2cccnc2)c1O` (stereo not shown) [CV-6504-4-glucuronide], in data set [2] (100 µM, 30 min), the 5-HETE production entry is on record as “significantly reduced”, the 11-HETE production result is recorded as “significantly reduced” and the 12-HETE production result is given as “significantly reduced”. The 15-HETE production result in data set [2] (100 µM, 1 h) is “significantly reduced”. Also, the “Inhibition” value in the data set on MAC13 cells is on record as “ineffective”. Further, in the data set on MAC13 tumour, the “Anti-tumour activity against MAC13 tumour in vivo compared with free CV-6504 at 5 mg kg-1 day-1 orally” value is “similar”; the “Anti-tumour activity in comparison with the 1-glucuronide and 4-sulphate” value is on record as “slightly reduced”.

As a reminder, the IC50 is the point on the concentration scale where inhibition reaches its midpoint.
